Measurements taken from US7309484B2, “Compositions and methods for screening antibacterial compounds” (priority 2003, dated 2007).
≈ marks a conversion by molar mass, not a printed value. Read-outs that look alike come from different tables or passages of the source. Bridge positions count the residues as written; N and C are the ends. Square brackets hold non-standard residues; d marks the D form. Peptide text beside a SMILES is read from it. * marks the point of attachment. Ileψ(thiazoline)Cys = CC[C@H](C)[C@H](N)C1=N[C@H](C(=O)*)CS1; dOrn = NCCC[C@@H](N)C(=O)O

Assays:
[1] = system: B. subtilis CU1065 and isogenic deletion mutants; assay: Minimal inhibitory concentration (MIC), microtiter-plate assay; type: cell-based, Bacillus subtilis; details: for MIC: Bacillus subtilis
Method: Since B. subtilis is closely related to the bacitracin-producing strains, it seemed likely that a similar system as described for B. licheniformis could exist in CU1065. The identification of two loci encoding ABC transporters that are under the bacitracin-inducible control of a two-component system supported this hypothesis. […] All strains were grown in microtiter-plates for 4 hours after dilution into LB medium containing the indicated concentrations of bacitracin. The experiment was done in triplicate and a representative result is shown. Strains used were: CU1065 (black squares), ‘bacR’ (HB0927, open diamonds), ‘bacAB’ (HB0928, black diamonds), ‘sigM’ (HB0031, open circles), ‘bcrC’ HB0106 (closed circles), ‘bcrC/bacAB’ (HB0937, black triangle). Compare also with Table 1.
Determination of the minimal inhibitory concentration (MIC): MIC-assays were performed in microtiter plates using a ‘Tecan Spectra Rainbow’ microtiter plate reader. […] Tenfold dilution of these cultures were inoculated in a total volume of 200 μl/well with increasing quantities of bacitracin, ranging from 0.01 to 1000 μg/mL (final concentration). The plates were incubated at 37° C. and the O.D.600 was read after 4 hours, when cultures had reached their final cell density. All experiments were performed in triplicate.

[2] = system: liaI expression (pMUTIN-derived lacZ fusion, strain BFS2470); assay: microbe, parasite or virus in culture; details: Bacillus subtilis, 0.5 h, read-out: fold induction of liaI expression
Method: Disc-diffusion assays were used to determine the spectrum of stimuli that induce the expression of liaIH. The B. subtilis strains BFS2469 and BFS2470 (Table 2), harboring pMUTIN-insertions in liaH and liaI respectively, were plated on a medium containing the indicator dye X-gal and overlaid with filter disks impregnated with various antibiotics that interfere with cell wall biosynthesis. Specifically, cultures of B. subtilis strain BFS2469 (liaH::pMUTIN) and BFS2470 (liaI::pMUTIN) were grown in LB medium to midlog phase, 2 mL for the un-induced control sample were harvested, and the remaining culture was induced with the three antibiotics for 30 minutes, before the cells of the induced sample were harvested. All samples were taken in duplicate from two independent cultures and the standard deviation is indicated by error bars.
Measurement of induction by β-galactosidase assays: Cells were inoculated from fresh overnight LB-plates and grown in LB-medium at 37° C. with aeration until they reached an O.D.600=0.45. 2 mL of cultures were harvested (un-induced control) and the cell pellets were shock frozen and kept at −70° C. The cultures were induced by addition of antibiotics to a final concentration of: bacitracin (100 μg/mL), tunicamycin (50 μg/mL) or vancomycin (2 μg/mL) and incubated for additional 30 min at 37° C. 2 mL of the cultures were harvested as described above (induced sample). The pellets were re-suspended in 1 mL of working buffer and assayed for β-galactosidase activity as described with normalization to cell density (Miller, 1972, the entire teaching of which is incorporated herein by reference).
For quantitative measurements of β-galactosidase activity, cells were inoculated from fresh overnight LB-plates and grown in LB medium at 37 YC with aeration until they reached an OD600 of 0.45. 2 ml of the culture was harvested (un-induced control) and the cell pellets were frozen and kept at −80 YC. The cultures were induced by addition of the compound to be tested to the final concentration as described in the individual figure legends and incubated for an additional 30 min at 37 YC. 2 ml of the cultures were harvested as described above. The pellets were re-suspended in 1 ml of working buffer (60 mM Na2HPO4, 40 mMNaH2PO4, 10 mM KCl, 1 mM MgSO4, 4 mM DTT) and assayed for β-galactosidase activity as described with normalization to cell density Kobayashi, K., et al., 2001, J Bacteriol 183:7365-7370). […] A sample was taken after 30 min for β-galactosidase assay and the turbidity of the remaining culture was measured for at least 5 hours to monitor the concentration-dependent effects of the antibiotics on cell growth.

With `CC[C@H](C)[C@H](N)C1=N[C@H](C(=O)N[C@@H](CC(C)C)C(=O)N[C@H](CCC(=O)O)C(=O)N[C@H](C(=O)N[C@H]2CCCCNC(=O)[C@H](CC(N)=O)NC(=O)[C@@H](CC(=O)O)NC(=O)[C@H](Cc3cnc[nH]3)NC(=O)[C@@H](Cc3ccccc3)NC(=O)[C@H]([C@@H](C)CC)NC(=O)[C@@H](CCCN)NC2=O)[C@@H](C)CC)CS1` [Bacitracin] ({Ileψ(thiazoline)Cys}-L[dE]IK[dOrn]I[dF]H[dD]N; lactam 4-C) the MIC ([1]; 4 h, read-out: Bacitracin MIC, mutant in bacAB (ytsCD), LB, 4 hours) was 10 µg/mL (≈ 7.03 µM), the MIC ([1]; 4 h, read-out: Bacitracin MIC, mutant in bcrC, LB, 4 hours) was 25 µg/mL (≈ 17.6 µM) and the MIC ([1]; read-out: bacitracin-resistance (MIC), bcrC/bceAB double mutant (HB0937)) was 2.5 µg/mL (≈ 1.76 µM). For the same compound, the MIC ([1]; read-out: bacitracin-resistance (MIC), wild type strain (CU1065)) was 500 µg/mL (≈ 351 µM), the “reduction in MIC compared to CU1065” value ([1]; bceAB deletion) was 50 fold and the “reduction in MIC compared to CU1065” value ([1]; bceR deletion) was 50 fold. The “decrease of bacitracin-resistance compared to the wild type strain” value ([1]; bcrC/bceAB double mutant) was 200 fold and the fold induction at 100 µg/mL [2] was > 500.
